From patent publication US20250387388A1, “COMPOUND AS TRK INHIBITOR AND/OR RET INHIBITOR AND USE THEREOF” (Medinno Pharmaceutical Technology (Zhuhai) Co., Ltd., priority 2022, published 2025)

Assays:
[1] = test system: phenol-induced cervicitis model in rats; assay: Phenol-induced cervicitis model in rats; type: in vivo, SD rats
Procedure: • Blank Control Group (untreated) (N=5+2 rats) • Cervicitis Model Group (vehicle treatment: 20% DMA+65% PEG400+15% H2O) (N=8+2 rats) • Cervicitis Model+Positive Control Drug Group (Jieeryin lotion (1:5 dilution), 2 times/day, for 7 consecutive days) (N=8 rats) • Cervicitis Model+Low-Dose MDI-1228 Compound Lotion Group (dose: 3 mg/kg/time, 2 times/day, for 7 consecutive days) (N=8 rats) • Cervicitis Model+Medium-Dose MDI-1228 Compound Lotion Group (dose: 10 mg/kg/time, 2 times/day, for 7 consecutive days) (N=8 rats) • Cervicitis Model+High-Dose MDI-1228 Compound Lotion Group (dose: 30 mg/kg/time, 2 times/day, for 7 consecutive days) (N=8 animals) • Experimental Environment: Temperature 20° C.-26° C., humidity 40%-70%.
SD rats were acclimated for one week. After anesthesia with isoflurane, the rats were fixed in a supine position on the operation table with their limbs secured. A 1 mL syringe with a blunt needle was inserted approximately 1 cm into the rat's vagina, and 0.1 mL of 25% phenol slurry was slowly injected. The vaginal opening was immediately plugged with a sterile cotton ball, and the rat was kept in a head-down and tail-high position for 20 minutes. The injection was performed every 2 days, for a total of 3 times. The vaginal opening of the rats was observed, and the model was considered successful if there was white secretion, vaginal congestion, and swelling.
The successfully modelled rats were randomly divided into 6 groups. Animals in each group were treated according to their group assignment. The blank group (untreated) received no treatment. The positive control group was administrated with Jieeryin lotion (1:5 dilution) for vaginal irrigation twice a day, for 7 consecutive days. The low, medium, and high-dose MDI-1228 compound lotions were used for vaginal irrigation twice a day, for 7 consecutive days. The model group was given an equal amount of vehicle treatment, with the same way and duration as the test drug groups.
Clinical Symptoms Observation: The general condition of the rats (activity, diet, mental state) was continuously observed, and the rats were weighted before and after administration. Daily observations and recordings were made of changes in the local area and secretions of the rat's vulva, whether the vaginal opening is dry, and whether there is congestion, swelling in the vulva and vaginal mucosa, and whether there is vaginal fluid blood. Scoring was conducted according to the following table.
Organ Weight and Organ Index Calculation: After the last administration, the rats were sacrificed the next day, and the uterus was removed, with fat tissue and mesentery dissected away, and the weight of the cervix (from the vaginal opening to the bifurcation of the double uterus) and the liver and spleen were measured to calculate the organ index.
Pathological Detection: ELISA detection for serum markers IL-4, IL-6, IL-1β, TNF-α; ELISA detection for plasma CP; biochemical detection for MDA and T-SOD in cervical tissue.
HE Staining: Tissue samples from animal vaginal, cervical, and uterine were excised, fixed in 4% paraformaldehyde, dehydrated, embedded in paraffin, and sectioned and HE stained for observation of histopathological morphology changes. The reagents and instruments required for HE staining included: Hematoxylin staining solution (AR 11800-1, BOSTER); Eosin staining solution (ARl1800-2, BOSTER); Ultra-clean advanced mounting medium (YZB, BASO); Scott's blueing solution (G1865, Solarbio), etc. Medication refrigerator (BYC-310, Shandong Bokai Biotech); Microscope (CX41 OLYMPUS); Microtome (BQ-318D, Berne); Electric heating blast drying oven (DHG-9070A. Hengke Scientific Instrument Co., Ltd.). The taken tissue was rinsed with running water for several hours, dehydrated through a series of ethanol solutions (70%, 80%, 90%), and then treated with a mixture of pure alcohol and xylene at a ratio of 1:1 for 15 minutes, followed by xylene I for 15 minutes and xylene II for 15 minutes (until transparent). […]

[2] = test system: atopic dermatitis/eczema in mice; assay: Atopic dermatitis/eczema model in mice (dust mite extract + SEB); type: in vivo
adipocytes = assay: Lipolysis in vitro in adipocytes; type: cell-based, C57BL/6 mouse; details: 5 μM
Procedure: Newly extracted neonatal C57BL/6 mouse skin fibroblasts (specific operational steps can be found in the literature: Cell Reports (2023)/doi: 10.1016/j.celrep.2023.112647) were plated and cultured in petri dishes until the cell density reached the highest and contact inhibition. Differentiation medium (DMEM+10% FBS+1× antibiotic; specific formula can be found in the literature: Cell Reports (2023)/doi: 10.1016/j.celrep.2023.112647) was then added to induce the generation of new adipocytes. […] The control group received an equal volume of DMSO. The transformation of adipocytes was observed using a Leica inverted phase contrast microscope.

[3] = 30 mg/kg/time, 2 times/day, 7 days
[4] = MDI-1228 at various doses (3, 10, 30 mg/kg)

`CCc1cc(O)c(F)cc1-c1ccc2c(-c3nc4c([nH]3)CN(C(=O)N3CC[C@H](O)C3)C4)n[nH]c2c1` [MDI-1228, (S)-(2-(6-(2-ethyl-5-fluoro-4-hydroxyphenyl)-1H-indazol-3-yl)-4,6-dihydropyrrolo[3,4-d]imidazol-5-(1H)-yl)(3-hydroxylpyrrolidin-1-yl)ketone] was tested, and the “Vaginal, cervical and uterine tissue HE staining” value ([1]; 3 mg/kg/time, 2 times/day, 7 days) was “still showed significant inflammatory cell infiltration in the entire tissue structure”, the “Vaginal, cervical and uterine tissue HE staining” value ([1]; 10 mg/kg/time, 2 times/day, 7 days) was “marked reduction in inflammatory cells” and the “Comprehensive score of cervicitis” value ([1]; 30 mg/kg/time vaginal irrigation, 2 times/day, 7 days, vs. model group) was “significantly reducing the comprehensive score of cervicitis”. For the same molecule, the Cervical index [1, 3] was “significantly reduced”, the “Reduction of area under the continuous scoring curve, edema score” value [1, 3] was 19.61% and the “Reduction of area under the continuous scoring curve, erythema score” value [1, 3] was 29.99%. For the same molecule, the “Reduction of area under the continuous scoring curve, secretion score” value [1, 3] was 21.05%, the “Reduction of area under the continuous scoring curve, vulvar inflammation score” value [1, 3] was 23.42% and the “Vaginal, cervical and uterine tissue HE staining” value [1, 3] was “showing the best effect”. The “Conditions of erythema, edema, and secretion” value [1, 4] was “can improve the conditions of erythema, edema, and secretion”, the “Levels of inflammatory factors” value [1, 4] was “decrease the levels of inflammatory factors IL-10, IL-4, IL-6, and TNF-α” and the “Skin HE staining and toluidine blue staining” value ([2]; 0.5% MDI-1228 gel) was “a decrease in mast cells and inflammatory cells compared to the model group”. The “Skin HE staining and toluidine blue staining” value ([2]; 1% and 3% MDI-1228 gel) was “relatively significant therapeutic effects”, the “Reduction in area under the curve (AUC) of the dermatitis scores vs. model group” value ([2]; 3% MDI-1228 gel) was 23.75% and the “Number of Scratch Incidents (±SE)” value ([2]; Day 1, 0.5% MDI-1228 gel) was 24.0 ± 3.60. The “Scratch Duration (±SE)” value ([2]; Day 1, 0.5% MDI-1228 gel) was 241.00 ± 48.16, the “Skin Erythema, Hemorrhage, Eruption, and Desquamation (Lesion Scoring) (Mean ± SE)” value (“Skin Erythema, Hemorrhage … (Mean ± SE)” below) ([2]; Day 1, 0.5% MDI-1228 gel 0.7 g gel/kg twice a day) was 4.13 ± 0.55 and the “Number of Scratch Incidents (±SE)” value ([2]; Day 1, 1% MDI-1228 gel) was 20.38 ± 2.08. For the same molecule, the “Scratch Duration (±SE)” value ([2]; Day 1, 1% MDI-1228 gel) was 211.50 ± 22.88, the “Skin Erythema, Hemorrhage … (Mean ± SE)” value ([2]; Day 1, 1% MDI-1228 gel 1 g gel/kg twice a day) was 4.75 ± 0.75 and the “Number of Scratch Incidents (±SE)” value ([2]; Day 1, 3% MDI-1228 gel) was 23.00 ± 2.46. The “Scratch Duration (±SE)” value ([2]; Day 1, 3% MDI-1228 gel) was 288.00 ± 19.68, the “Skin Erythema, Hemorrhage … (Mean ± SE)” value ([2]; Day 1, 3% MDI-1228 gel 1 g gel/kg twice a day) was 3.38 ± 0.42 and the “Skin Erythema, Hemorrhage … (Mean ± SE)” value ([2]; Day 4, 0.5% MDI-1228 gel 0.7 g gel/kg twice a day) was 2.88 ± 0.64. The “Skin Erythema, Hemorrhage … (Mean ± SE)” value ([2]; Day 4, 1% MDI-1228 gel 1 g gel/kg twice a day) was 3.25 ± 0.49, the “Skin Erythema, Hemorrhage … (Mean ± SE)” value ([2]; Day 4, 3% MDI-1228 gel 1 g gel/kg twice a day) was 2.63 ± 0.46 and the “Skin Erythema, Hemorrhage … (Mean ± SE)” value ([2]; Day 7, 0.5% MDI-1228 gel 0.7 g gel/kg twice a day) was 2.13 ± 0.58. The “Skin Erythema, Hemorrhage … (Mean ± SE)” value ([2]; Day 7, 1% MDI-1228 gel 1 g gel/kg twice a day) was 2.13 ± 0.30, the “Skin Erythema, Hemorrhage … (Mean ± SE)” value ([2]; Day 7, 3% MDI-1228 gel 1 g gel/kg twice a day) was 1.75 ± 0.31 and the “Number of Scratch Incidents (±SE)” value ([2]; Day 14, 0.5% MDI-1228 gel) was 30.38 ± 3.79. For the same molecule, the “Scratch Duration (±SE)” value ([2]; Day 14, 0.5% MDI-1228 gel) was 165.63 ± 27.56, the “Skin Erythema, Hemorrhage … (Mean ± SE)” value ([2]; Day 14, 0.5% MDI-1228 gel 0.7 g gel/kg twice a day) was 1.25 ± 0.36 and the “Number of Scratch Incidents (±SE)” value ([2]; Day 14, 1% MDI-1228 gel) was 28.13 ± 2.05. For the same molecule, the “Scratch Duration (±SE)” value ([2]; Day 14, 1% MDI-1228 gel) was 182.0 ± 25.39, the “Skin Erythema, Hemorrhage … (Mean ± SE)” value ([2]; Day 14, 1% MDI-1228 gel 1 g gel/kg twice a day) was 1.38 ± 0.18 and the “Number of Scratch Incidents (±SE)” value ([2]; Day 14, 3% MDI-1228 gel) was 23.75 ± 2.62. The “Scratch Duration (±SE)” value ([2]; Day 14, 3% MDI-1228 gel) was 173.13 ± 19.26, the “Skin Erythema, Hemorrhage … (Mean ± SE)” value ([2]; Day 14, 3% MDI-1228 gel 1 g gel/kg twice a day) was 1.63 ± 0.26 and the “Effect on inflammation in atopic dermatitis/eczema (conclusion)” value ([2]; MDI-1228 gel preparation) was “significant inhibitory effects on inflammation”. For the same molecule, the “IFN-γ level in serum” value ([2]; MDI-1228 gel, vs. model group) was “significantly increased”, the “IL-4 level in serum” value ([2]; MDI-1228 gel, vs. model group) was “significantly reduced” and the “IL-13 level in serum” value ([2]; MDI-1228 gel, vs. model group) was “significantly reduced”. The “Behavioral analysis (scratch incidents and scratch duration)” value ([2]; MDI-1228 high-dose (3% gel), tofacitinib 10 mg/kg) was “certain therapeutic effect in the behavioral analysis”, the “Clinical lesion scoring, therapeutic effect” value ([2]; gels with 0.5%, 1%, 3% MDI-1228, positive control Tofacitinib 10 mg/kg, 14 days) was “therapeutic effects similar to the positive control drug” and the “TNF-α level in serum” value ([2]; high, medium, and low dose MDI-1228 gel, vs. model group) was “a reduction in TNF-α levels”. The “Lipolysis of differentiated mature adipocytes (phase contrast images)” value (adipocytes) was “promotes the lipolysis of adipocytes into smaller lipid droplets”.
